Reference: paper PMC3269379, “The Host-Pathogen interaction of human cyclophilin A and HIV-1 Vpr requires specific N-terminal and novel C-terminal domains” (BMC Structural Biology, 2011)
“Also recorded” adds a separate entry of the source. Where a SMILES comes first, the peptide text is derived from it.

What was measured:
CypA [1] = biological target: T1, CypA (Homo sapiens, UniProt P62937); test: SPR binding of Vpr and Vpr peptides to immobilized CypA; conditions: for binding to CypA in SPR sensorgrams (in words): peptides 0-8 μM over CM5 chip with 150 RU CypA (Figure 2)
T1 construct: made in house
Protocol: SPR [42-44] measurements were performed at 25°C on a Biacore T100 instrument (Biacore AB, Uppsala, Sweden) equipped with CM5 research-grade sensor chips. CypA was immobilized to 150, 180, 918 and 5003 RU, using standard amine-coupling chemistry. The reference flow cells were treated correspondingly except for CypA immobilization. The synthetic full length Vpr, as well as fragments and mutants thereof, were dissolved at four different concentrations in the running buffer (HBS-EP buffer pH 7.4; 10 mM HEPES, 150 mM NaCl, 3.4 mM EDTA and 0.005% surfacant). The samples were injected over the flow cells at a flow rate of 30 μl/min. Data were collected at 2.5 Hz during 60 s association and 180 s or 240 s dissociation phases, and were automatically corrected for bulk buffer effects and non-specific binding of Vpr peptides to the chip matrix. All SPR data was acquired from two individual series of experiments using four different analyte concentrations with a duplicate injection of one of the individual concentrations.
Affinity, association and dissociation rate constants were obtained from sensorgrams by the Biacore T100 evaluation software version 2.0.1 in accordance with the global curve fit model. Sensorgram data for the four different concentrations were fitted to several binding models including 1:1 (Langmuir) binding model (A+B ↔ AB), two-state reaction (conformational change) model (A+B ↔ AB ↔ AB*), heterogeneous ligand (HL) model (interaction one: A+B1 ↔ AB1; interaction two: A+B2 ↔ AB2) and bivalent analyte (BA) model (A+B ↔ AB; AB+B↔ABB). Kinetic constants were calculated for the best fitted model.

CypA [2] = biological target: T1, CypA; test: Isothermal titration calorimetry of Vpr^75-90 binding to CypA; conditions: ITC; mean ± S.E of two titrations; read-out: Ka (converted)
Protocol: ITC was performed in a VP-ITC titration calorimeter (MicroCal Inc.). […] The mean of the heat from the last 5 injections was subtracted from the raw data to correct for experimental heat dilution. The binding isotherms were fitted to a one site binding model using the Origin v7 software (OriginLab). Chi-square minimization was performed iteratively to obtain the best-fit parameters.

T1 sequence (P62937 whole entry): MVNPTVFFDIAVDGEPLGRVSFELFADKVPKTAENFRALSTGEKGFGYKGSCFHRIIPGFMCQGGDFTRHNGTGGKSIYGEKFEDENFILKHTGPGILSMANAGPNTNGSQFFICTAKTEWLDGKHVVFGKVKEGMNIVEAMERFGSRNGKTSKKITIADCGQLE

Compound | binding to CypA in SPR sensorgrams (in words) (CypA [1]) | other results
CC[C@H](C)[C@H](NC(=O)CNC(=O)[C@@H](NC(=O)[C@H](CCCNC(=N)N)NC(=O)[C@H](CO)NC(=O)[C@H](Cc1c[nH]cn1)NC(=O)[C@H](CCC(N)=O)NC(=O)[C@H](CS)NC(=O)CN)[C@@H](C)CC)C(=O)N[C@H](C(=O)N[C@@H](CCCNC(=N)N)C(=O)N[C@@H](CCC(N)=O)C(=O)N[C@@H](CCCNC(=N)N)C(=O)N[C@@H](CCCNC(=N)N)C(=O)N[C@@H](C)C(=O)N[C@@H](CCCNC(=N)N)C(=O)O)[C@@H](C)CC [Vpr^75-90 (R76Q, V83I, T84I)] (H-GCQHSRIGIIRQRRAR-OH) | – | Kd (CypA [1]): 4.7 ± 2.6 µM
CC[C@H](C)[C@H](NC(=O)CNC(=O)[C@@H](NC(=O)[C@H](C)NC(=O)[C@H](CO)NC(=O)[C@H](Cc1c[nH]cn1)NC(=O)[C@H](CCC(N)=O)NC(=O)[C@H](CS)NC(=O)CN)[C@@H](C)CC)C(=O)N[C@H](C(=O)N[C@@H](CCCNC(=N)N)C(=O)N[C@@H](CCC(N)=O)C(=O)N[C@@H](CCCNC(=N)N)C(=O)N[C@@H](CCCNC(=N)N)C(=O)N[C@@H](C)C(=O)N[C@@H](CCCNC(=N)N)C(=O)O)[C@@H](C)CC [Vpr^75-90 (R76Q, V83I, R80A, T84I)] (H-GCQHSAIGIIRQRRAR-OH) | – | Kd (CypA [1]): 2.7 ± 1.9 µM
CC[C@H](C)[C@H](NC(=O)[C@H](CCCNC(=N)N)NC(=O)[C@H](CO)NC(=O)[C@H](Cc1c[nH]cn1)NC(=O)[C@H](CCCNC(=N)N)NC(=O)[C@H](CS)NC(=O)CN)C(=O)NCC(=O)N[C@H](C(=O)N[C@H](C(=O)N[C@@H](CCCNC(=N)N)C(=O)N[C@@H](CCC(N)=O)C(=O)N[C@@H](CCCNC(=N)N)C(=O)N[C@@H](CCCNC(=N)N)C(=O)N[C@@H](C)C(=O)N[C@@H](CCCNC(=N)N)C(=O)O)[C@@H](C)O)C(C)C [Vpr^75-90] | – | Kd (CypA [2]): 0.0769 µM
Vpr^30-40: N-terminal peptide containing the N-terminal binding region of Vpr to CypA (AVRHFPRIWLH) | – | binding to CypA in SPR sensorgrams, comparison (in words) (CypA [1]; analyte 1-8 μM, chip with 180 RU CypA (Figure 1B, C)): lower affinity
CC[C@H](C)[C@H](N)C(=O)NCC(=O)N[C@H](C(=O)N[C@H](C(=O)N[C@@H](CCCNC(=N)N)C(=O)N[C@@H](CCC(N)=O)C(=O)N[C@@H](CCCNC(=N)N)C(=O)N[C@@H](CCCNC(=N)N)C(=O)N[C@@H](C)C(=O)N[C@@H](CCCNC(=N)N)C(=O)O)[C@@H](C)O)C(C)C [Vpr^81-90] (H-IGVTRQRRAR-OH; N-terminus and C-terminus assumed) | interacted only weakly | –
CC[C@H](C)[C@H](NC(=O)[C@H](CCCNC(=N)N)NC(=O)[C@H](CO)NC(=O)[C@H](Cc1c[nH]cn1)NC(=O)[C@H](CCCNC(=N)N)NC(=O)[C@H](CS)NC(=O)CN)C(=O)NCC(=O)N[C@H](C(=O)N[C@H](C(=O)O)[C@@H](C)O)C(C)C [Vpr^75-84] (H-GCRHSRIGVT-OH; N-terminus and C-terminus assumed) | interacted only weakly; also recorded: fails to bind | –
CC[C@H](C)[C@H](NC(=O)[C@H](CCCNC(=N)N)NC(=O)[C@H](Cc1ccccc1)NC(=O)[C@H](Cc1c[nH]cn1)NC(=O)[C@@H](NC(=O)[C@@H](N)Cc1ccccc1)[C@@H](C)CC)C(=O)NCC(=O)N[C@@H](CS)C(=O)N[C@@H](CCCNC(=N)N)C(=O)N[C@@H](Cc1c[nH]cn1)C(=O)O [Vpr^69-78] (H-FIHFRIGCRH-OH; N-terminus and C-terminus assumed) | interacted only weakly | –
C[C@H](NC(=O)CNC(=O)[C@H](CC(N)=O)NC(=O)[C@H](CCCNC(=N)N)NC(=O)[C@H](C)NC(=O)[C@H](CCCNC(=N)N)NC(=O)[C@@H](N)CCCNC(=N)N)C(=O)N[C@@H](CO)C(=O)N[C@@H](CCCNC(=N)N)C(=O)N[C@@H](CO)C(=O)O [Vpr^87-96] (H-RRARNGASRS-OH; N-terminus and C-terminus assumed) | interacted only weakly | –
